Series [1] deals with human pulmonary microvascular endothelial cells (HPMEC). The experiment in a line: DMOG-induced apoptosis in HPMEC. The series is classed as cell-based. An excerpt:
The effects of various TSPO ligands on HPMEC under DMOG (a permeable prolyl-4-hydroxylase inhibitor which upregulates hypoxia-inducible factor and causes apoptosis) stimulation were investigated.

For series [2], the system named is Human pulmonary artery smooth muscle cells (PASMCs). The experiment in a line: PDGF- and hypoxia-stimulated proliferation of PASMCs. It counts as cell-based.
In series [3] the test system is HPAEC. The series can be described thus: Mitochondrial membrane potential in TNF-α stimulated HPAEC (TMRE). The series is classed as cell-based, human. To be noted: 10 nM and 50 nM; P<0.001; recovering to levels similar to TNF-α untreated control. How it is done:
(§1) Mitochondrial membrane potential was determined using 20 nM Tetramethylrhodamine, Ethyl Ester, Perchlorate (TMRE; Life technologies, T669). ROS production was detected using 5 uM CellROX Green (Life technologies, C10444). 1 ug/mL Hoechst 33342 (Life technologies, H1399) was added for nucleus staining. Images were obtained with a Zeiss Axio Observer inverted widefield microscope. […] In addition, XBD173 signifantly (P<0.001) increased the mitochondrial membrane potentials following TNF-α stimulation, with the mitochondrial membrane potentials with XBD173 treatment recovering to similar levels to those seen for the TNF-α untreated control.

In series [4] the target is T1, TSPO (Rattus norvegicus, UniProt P16257).
T1 construct: from tissue; host or cells: lungs and right ventricle of living control and monocrotaline-treated rats (in vivo PET)
The series can be described thus: 11C-PBR28 PET imaging, ligand specificity tested by XBD-173 pre-treatment. The series is classed as in vivo. To be noted: rats treated with XBD-173 prior to PET imaging. How it is done:
PET imaging was performed in healthy control and MCT 4 weeks rats (60 mg/kg subcutaneous injection). The uptake of TSPO PET tracer, ^11C-PBR28, was measured in the lungs and RV.

Series [5] has as its system MCT rat. The series can be described thus: MCT rat PH model: MRI of RV structure and function. The series is classed as in vivo.
The subject of series [6] is HPAECs. The series can be described thus: TNF-α stimulated HPAEC activation: E-selectin ELISA and cytokine array. It counts as cell-based, human. To be noted: 10 nM and 50 nM. How it is done: HPAECs were pre-treated with XBD173 (10 nM and 50 nM) for 24 hours before TNF-α (10 ng/ml) stimulation for 8 hours. At the end of the experiment, cell numbers were counted and cell culture supernatants collected (n=4 per group, control, TNF-α, TNF-α with XBD 10 nM and 50 nM treatments) for cytokine assay using the proteome profiler human cytokine array kit (R&D systems, ARY005B) and E-selectin ELISA assay. […] Further, XBD173 observably attenuated release of multiple cytokines and chemokines (CXCL-10, RANTES, IL-6, IL-21, IL-18, CXCL11, G-CSF and CXCL12) from HPAEC in response to TNF-α stimulation.
On the technique in general: An ELISA detects its analyte on a solid surface through an enzyme-linked reagent.

In series [7] the test system is MCT rat. The experiment in a line: MCT rat PH model: pulmonary vascular remodelling and CD68+ macrophage infiltration (histology). The series is classed as in vivo. As for the experimental part:
Modulation of TSPO by XBD-173 was assessed in MCT rats. […] Heart and lung glucose metabolism were also assessed by FDG-PET imaging.

The subject of series [8] is HPAEC. The experiment in a line: ROS production in TNF-α stimulated HPAEC (CellROX Green). It counts as cell-based, human. As to conditions: 10 nM and 50 nM; P<0.001; levels similar to TNF-α untreated control. As for the experimental part:
as §1

The subject of series [9] is MCT rat. The experiment in a line: MCT rat PH model: pulmonary arterial pressure, RVSP, RV hypertrophy, systemic blood pressure. It counts as in vivo. As for the experimental part:
Modulation of TSPO by XBD-173 was assessed in MCT rats. […] Heart and lung glucose metabolism were also assessed by FDG-PET imaging. […] This attenuation was dose-dependent manner. […] (data not shown).

In series [10] the test system is SuHx rat. The series can be described thus: SuHx rat model: PAP, RV hypertrophy, systolic blood pressure. As to conditions: SuHx rats, 2 mg/kg twice a day for two weeks. The series is classed as in vivo.
Series [11] relates to MCT rat. The experiment in a line: MCT rat PH model: RV immunofluorescence (WGA cardiomyocyte size, CD31 micro-vessels). It counts as in vivo. The source says:
Bar charts illustrating the quantitative data from immunofluorescence staining. ***p<0.001.
Immunofluorescence staining was used to examine the RV structural changes. The cardiomyocyte size was quantified by wheat germ agglutinin (WGA) and the number of micro-vessels by CD31 at RV insertion point.

In series [12] the target is human TSPO (Homo sapiens, UniProt P30536, T147A). To be noted: human subjects with high-affinity binding of their TSPO; read-out: mean Kd, high affinity binders; cited from earlier work.
Series [13] addresses human TSPO (Homo sapiens, UniProt P30536). To be noted: cited from earlier work.
The mark [14] stands for this setting: 2 mg/Kg once and twice a day, 2-4 weeks.

Read-outs that look alike come from different tables or passages of the source.

The values below come from US12691121B2, “Treatment of pulmonary arterial hypertension” (IMPERIAL COLLEGE INNOVATIONS LIMITED, priority 2020, dated 2026).

Chain of human TSPO (Homo sapiens, UniProt P30536, T147A) (P30536 2-169 T147A): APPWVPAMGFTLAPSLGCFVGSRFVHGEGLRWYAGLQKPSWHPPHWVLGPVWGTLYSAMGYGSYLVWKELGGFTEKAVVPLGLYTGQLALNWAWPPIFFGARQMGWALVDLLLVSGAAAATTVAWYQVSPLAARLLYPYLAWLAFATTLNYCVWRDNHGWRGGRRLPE

For the molecule `CCNC1=Nc2ccc(Cl)cc2C(C)(c2ccccc2)O1` (stereo not drawn) [Etifoxine], the “DMOG-induced apoptotic effects in HPMECs” value in series [1] (FIG. 12F, 10 uM) is listed as “reversed”.
As to `CC(=O)N(Cc1ccccc1O[11CH3])c1cnccc1Oc1ccccc1` [PBR28], in series [1] (FIG. 12D, 5 nM), the “DMOG-induced apoptotic effects in HPMECs” value is listed as “reversed”.
With `CCC(C)N(C)C(=O)c1cc2ccccc2c(-c2ccccc2Cl)n1` (stereo not drawn) [PK95111], in series [1] (FIG. 12B, 3 nM, 30 nM and 300 nM), the “DMOG-induced apoptotic effects in HPMECs” value was “reversed”.
For `CN1C(=O)CN=C(c2ccc(Cl)cc2)c2cc(Cl)ccc21` [Ro 5-4864], the “DMOG-induced apoptotic effects in HPMECs” value in series [1] (FIG. 12E, 10 nM) is “reversed”.
In the case of `CCOC(=O)C1=C[C@]2(CC)CCCN3CCc4c(n1c1ccccc41)[C@@H]32` [Vinpocetine], the “DMOG-induced apoptotic effects in HPMECs” value in [1] (FIG. 12C, 800 nM) is given as “reversed”.
Broadly, the Kd is the equilibrium constant for the complex coming apart. As to `CCN(Cc1ccccc1)C(=O)Cn1c(=O)n(C)c2cnc(-c3ccccc3)nc21` [XBD-173, N-Ethyl-7,8-dihydro-7-methyl-8-oxo-2-phenyl-N-(phenylmethyl)-9H-purine-9-acetamide], the “PDGF-stimulated proliferation of PASMCs” value in series [2] (PDGF stimulus) is listed as “attenuated”. Further, the “hypoxia-stimulated proliferation of PASMCs” value in series [2] (hypoxia stimulus (O2=2%)) was “attenuated”. Moreover, the “mitochondrial membrane potentials following TNF-α stimulation” value in [3] is given as “increased”. For the same molecule, the “PBR28 lung signals (11C-PBR28 PET)” value in [4] was “blocked”. In series [5], the “RV cardiac index (RVCI)” value is on record as “restoring”; the “RV dilation (RV end diastolic volume index, RVEDVI)” value is on record as “significantly reduced”; the “RV ejection fraction (RVEF)” value is given as “restoring”; the “RV hypertrophy as RV mass index (RVMI)” value is reported as “reduced”. Also, in series [5], the “RV hypertrophy as ventricular mass index (VMI)” value is listed as “reduced” and the “ventricular-vascular coupling (Ees/Ea)” value is recorded as “restoring”. Besides, the “activation of HPAECs by TNF-α (E-selectin expression)” value in series [6] (24 hours pre-treatment, TNF-α 10 ng/ml 8 hours, P<0.05) is listed as “reduced”. Further, in series [6] (TNF-α stimulation), the CXCL11 release result was “attenuated”, the CXCL12 release result is “attenuated”, the CXCL-10 release result is “attenuated” and the G-CSF release entry is “attenuated”. In series [6] (TNF-α stimulation), the IL-6 release result is listed as “attenuated”, the IL-18 release result is “attenuated”, the IL-21 release entry is “attenuated” and the RANTES release result was “attenuated”. In [7] (MCT rat lung), the “inflammatory cell (CD68, macrophage) infiltration” value was “attenuated”. For the same molecule, the “pulmonary vascular remodelling (% of muscularised vessels)” value in series [7] (MCT rat, 2 mg/Kg once and twice a day, 2-4 weeks, vs 75.24 untreated MCT) came to 53.57%. Further, the “ROS production following TNF-α stimulation” value in series [8] is listed as “reduced”. Also, in series [9] (setting [14]), the “RV/body weight (RV/BW)” value is listed as “attenuated” and the “RVSP (RV catheterisation)” value was “attenuated”. For the same molecule, in [9] (2 mg/Kg once and twice a day, 2-4 weeks, vs 57.30 untreated MCT), the “RVH (RV/LV+sp ratio, dissected heart tissue)” value was 40.30. Moreover, the “pulmonary arterial pressure (PAP)” value in series [9] (2 mg/Kg once and twice a day, treatment from 2 weeks to 4 weeks, vs 45.37 untreated MCT) was 27.23 mmHg. In series [9] (data not shown), the systemic blood pressure result is listed as “no significant effect”. In addition, the “DMOG-induced apoptotic effects in HPMECs” value in series [1] (Example 4, FIG. 11) was “reversed”. Besides, in series [1] (FIG. 12A, 10 nM, 50 nM and 100 nM), the “DMOG-induced apoptotic effects in HPMECs” value was “reversed”. In series [10], the RV hypertrophy result is recorded as “significant decrease”, the “pulmonary arterial pressure (PAP)” value was “significant decrease” and the systemic blood pressure entry is recorded as “no significant effect”. For the same molecule, the “RV cardiomyocyte hypertrophy (myocyte size, WGA)” value in series [11] (MCT rat RV) was “attenuated”. Further, the “RV capillary density (CD31 micro-vessels)” value in series [11] (MCT rat RV insertion point) is reported as “increased”. Also, in series [12], the Kd was around 0.0025 µM. In addition, the Kd in series [13] (human subjects with both high- and low-affinity binding sites, read-out: mean Kd, mixed affinity binders) is around 0.011 µM. Moreover, in [13] (human subjects with low-affinity binding of their TSPO, read-out: mean Kd, low affinity binders), the equilibrium dissociation constant (Kd) was around 0.03 µM.
